Measurements as given in US6642217B2, “Triterpenes having human antifungal and antiyeast activity” (Naturtek, LLC, priority 2000, dated 2003).

Columns and labels:
Epidermophyton floccosum [1] = test: Summary of anti-fungal assays (direct addition, agar dilution, liquid culture); format: cell-based; settings: stated in words (Tables 1a/1b, text to Table 5)
Protocol: (§1) This example summarizes the results of various other assays of the anti-fungal activity of betulin derivatives. Table 5 summarizes results using different assay methods—direct addition, agar dilution, and direct addition to liquid culture, as disclosed in the previous three Examples. In some cases, only one type of assay was done with a compound. In other cases, the compound was tested by multiple assays.

Microsporum audouinii = test: as above; format: cell-based; settings: stated in words (Tables 1a/1b, text to Table 5)
Protocol: as §1

[2] = system: Trichophyton mentagrophytes; test: as above; format: cell-based; settings: stated in words (Tables 1a/1b, text to Table 5)
Protocol: as §1

Trichophyton rubrum [3] = test: as above; format: cell-based; settings: stated in words (Tables 1a/1b, text to Table 5)
Protocol: as §1

Trichophyton rubrum [4] = test: Direct addition method, solid compound in Sabouraud dextrose agar; format: cell-based; settings: against Trichophyton rubrum
Protocol: (§2) Direct addition method. Sabouraud dextrose agar was prepared according to the manufacturer's instructions and 5.0 ml was dispensed in each 100×25 mm tube. The tubes were autoclaved. To each tube containing 5.0 ml of liquid agar at 45° C., 20 mg of solid test compound was added, to give a final concentration of 4 mg/ml. The agar was solidified in slants. The fungal cultures were then innoculated. The slants were incubated at 25-28 ° C. for 10-12 days, and the growth of the fungus was recorded every second day. The results in Table 2 indicate growth at the 12th day of inoculation.

Microsporum audouinni [5] = test: as above; format: cell-based, Microsporum audouinii; set-up: key to Fungal growth: +++: Maximum Fungal Growth; ++: Moderate Fungal Growth; +: Minimum Fungal Growth; +/−: Very little Fungal Growth; −: No Fungal Growth; settings: 4 mg/mL of agar; 12th day after inoculation
Outline: (§3)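 Direct-addition agar test: compound (4 mg/ml final, added undissolved to molten Sabouraud dextrose agar) in slants, incubated 25-28° C. with growth noted on day 12.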

Pityrosporum ovale [6] = test: Direct addition into the Pityrosporum agar; format: cell-based; set-up: key to Pityrosporum ovale growth: +++: Maximum Growth; ++: Moderate Growth; +: Minimum Growth; +/−: Very Little Growth; −: No Growth; settings: for Pityrosporum ovale growth: 4 mg/ml in the agar, 18 hours after inoculation; for Growth inhibition of Pityrosporum ovale by the direct addition method: 4 mg/ml
Protocol: as §2, with “The slants were incubated at 25-28 ° C. for 10-12 days, and the growth of the fungus was recorded every second day. The results in Table 2 indicate growth at the 12th day of inoculation.” left out

Epidermophyton floccosum [7] = test: Direct addition method, solid compound in Sabouraud dextrose agar; format: cell-based; set-up: key: +++: Maximum Fungal Growth; ++: Moderate Fungal Growth; +: Minimum Fungal Growth; +/−: Very little Fungal Growth; −: No Fungal Growth; settings: 4 mg/mL of agar; 12th day after inoculation
Outline: as §3

Microsporum canis [8] = test: as above; format: cell-based; set-up: key: +++: Maximum Fungal Growth; ++: Moderate Fungal Growth; +: Minimum Fungal Growth; +/−: Very little Fungal Growth; −: No Fungal Growth; settings: 4 mg/mL of agar; 12th day after inoculation
Outline: as §3

Pityrosporum ovale [9] = test: as above; format: cell-based; set-up: key: +++: Maximum Fungal Growth; ++: Moderate Fungal Growth; +: Minimum Fungal Growth; +/−: Very little Fungal Growth; −: No Fungal Growth; settings: 4 mg/mL of agar; 12th day after inoculation
Outline: as §3

Trichophyton rubrum [10] = test: as above; format: cell-based; set-up: key: +++: Maximum Fungal Growth; ++: Moderate Fungal Growth; +: Minimum Fungal Growth; +/−: Very Little Fungal Growth; −: No Fungal Growth; settings: 4 mg/mL of agar; 12th day after inoculation
Protocol: as §2

Microsporum canis [11] = test: Agar dilution method, growth on Sabouraud dextrose agar slants; format: cell-based; set-up: key: +++: Maximum Fungal Growth; ++: Moderate Fungal Growth; +: Minimum Fungal Growth; +/−: Very little Fungal Growth; −: No Fungal Growth; settings: 12th day after inoculation
Outline: (§4)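 In this agar dilution format, DMSO solutions of compound went into liquid Sabouraud dextrose agar (45 °C), which was slanted and inoculated. Incubation ran 10-12 days at 25-28 °C.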

Microsporum gypseum [12] = test: as above; format: cell-based; set-up: key: +++: Maximum Fungal Growth; ++: Moderate Fungal Growth; +: Minimum Fungal Growth; +/−: Very little Fungal Growth; −: No Fungal Growth; settings: 12th day after inoculation
Outline: as §4

Pityrosporum ovale [13] = test: as above; format: cell-based; set-up: key: +++: Maximum Fungal Growth; ++: Moderate Fungal Growth; +: Minimum Fungal Growth; +/−: Very little Fungal Growth; −: No Fungal Growth; settings: 12th day after inoculation
Outline: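 Readout: fungal growth, noted on alternate days across a 10-12 day incubation at 25-28 °C. Test slants were Sabouraud dextrose agar with compound incorporated from DMSO before solidification.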

Trichophyton rubrum [14] = test: as above; format: cell-based; set-up: key: +++: Maximum Fungal Growth; ++: Moderate Fungal Growth; +: Minimum Fungal Growth; +/−: Very little Fungal Growth; −: No Fungal Growth; settings: 12th day after inoculation
Outline: as §4

Microsporum audouinni [15] = test: as above; format: cell-based, Microsporum audouinii; set-up: key: +++: Maximum Fungal Growth; ++: Moderate Fungal Growth; +: Minimum Fungal Growth; +/−: Very little Fungal Growth; −: No Fungal Growth; settings: 12th day after inoculation
Outline: as §4

Trichophyton tonsuran = test: as above; format: cell-based, Trichophyton tonsurans; set-up: key: +++: Maximum Fungal Growth; ++: Moderate Fungal Growth; +: Minimum Fungal Growth; +/−: Very little Fungal Growth; −: No Fungal Growth; settings: 12th day after inoculation
Outline: as §4

[16] = system: Trichophyton mentagrophyte; test: as above; format: cell-based, Trichophyton mentagrophytes; set-up: key to Fungal growth: +++: Maximum Fungal Growth; ++: Moderate Fungal Growth; +: Minimum Fungal Growth; +/−: Very little Fungal Growth; −: No Fungal Growth; settings: 12th day after inoculation
Outline: as §4

Epidermophyton floccosum [17] = test: as above; format: cell-based; set-up: key to Fungal growth: +++: Maximum Fungal Growth; ++: Moderate Fungal Growth; +: Minimum Fungal Growth; +/−: Very little Fungal Growth; −: No Fungal Growth; settings: for Fungal growth: 12th day after inoculation
Outline: as §4

Microsporum gypseum [18] = test: Summary of anti-fungal assays (direct addition, agar dilution, liquid culture); format: cell-based; settings: stated in words (Tables 1a/1b, text to Table 5)
Protocol: as §1

Trichophyton tonsurans = test: as above; format: cell-based; settings: stated in words (Tables 1a/1b, text to Table 5)
Protocol: as §1

P. ovale = test: as above; format: cell-based, Pityrosporum ovale; settings: stated in words (Tables 1a/1b, text to Table 5)
Protocol: as §1

Trichophyton rubrum [19] = test: Direct addition method, solid compound in Sabouraud dextrose agar; format: cell-based; set-up: key: +++: Maximum Fungal Growth; ++: Moderate Fungal Growth; +: Minimum Fungal Growth; +/−: Very little Fungal Growth; −: No Fungal Growth; settings: 4 mg/mL of agar; 12th day after inoculation
Outline: as §3

## C=C(C)C1CCC2(COC(=O)CC(C)(C)CC(=O)O)CCC3(C)C(CCC4C5(C)CCC(OC(=O)CC(C)(C)CC(=O)O)C(C)(C)C5CCC43C)C12 (stereo not drawn) [Betulin-3,28-di(3′,3′-dimethyl)glutarate]
Epidermophyton floccosum [1]
  Active against Epidermophyton floccosum: against Epidermophyton floccosum
Microsporum audouinii
  Active against Microsporum audouinii: Microsporum audouinii,
[2]
  Active against Trichophyton mentagrophytes: Trichophyton mentagrophytes,
Trichophyton rubrum [3]
  Active against Trichophyton rubrum: Trichophyton rubrum,

## C=C(C)C1CCC2(COC(=O)C(N)C(C)C)CCC3(C)C(CCC4C5(C)CCC(OC(=O)C(N)C(C)C)C(C)(C)C5CCC43C)C12 [Betulin-3,28-di-L-valine]
Trichophyton rubrum [4]
  best anti-fungal or anti-yeast activity by the direct addition method: against Trichophyton rubrum
Microsporum audouinni [5]
  Fungal growth: +
Pityrosporum ovale [6]
  Pityrosporum ovale growth: +/−
Epidermophyton floccosum [7]
  Fungal growth: −
Microsporum canis [8]
  Fungal growth: +
Pityrosporum ovale [9]
  Fungal growth: −
Trichophyton rubrum [10]
  Fungal growth: +/−

## C=C(C)[C@@H]1CC[C@]2(COC(=O)c3ccccc3C(=O)O)CC[C@]3(C)[C@H](CC[C@@H]4[C@@]5(C)CC[C@H](OC(=O)c6ccccc6C(=O)O)C(C)(C)[C@@H]5CC[C@]43C)[C@@H]12 [Betulin-3,28-diphthalate]
Microsporum canis [11]; 125 μg/ml
  Fungal growth: ++
Microsporum canis [11]; 250 μg/ml
  Fungal growth: +
Microsporum canis [11]; 500 μg/ml
  Fungal growth: −
Microsporum canis [11]; 1000 μg/ml
  Fungal growth: −
Microsporum gypseum [12]; 125 μg/ml
  Fungal growth: ++
Microsporum gypseum [12]; 250 μg/ml
  Fungal growth: +
Microsporum gypseum [12]; 500 μg/ml
  Fungal growth: −
Microsporum gypseum [12]; 1000 μg/ml
  Fungal growth: −
Pityrosporum ovale [13]; 125 μg/ml
  Fungal growth: +++
Pityrosporum ovale [13]; 250 μg/ml
  Fungal growth: +++
Pityrosporum ovale [13]; 500 μg/ml
  Fungal growth: +++
Pityrosporum ovale [13]; 1000 μg/ml
  Fungal growth: ++
Trichophyton rubrum [14]; 125 μg/ml
  Fungal growth: ++
Trichophyton rubrum [14]; 250 μg/ml
  Fungal growth: ++
Trichophyton rubrum [14]; 500 μg/ml
  Fungal growth: +
Trichophyton rubrum [14]; 1000 μg/ml
  Fungal growth: −
Microsporum audouinni [15]; 125 μg/ml
  Fungal growth: ++
Microsporum audouinni [15]; 250 μg/ml
  Fungal growth: +
Microsporum audouinni [15]; 500 μg/ml
  Fungal growth: −
Microsporum audouinni [15]; 1000 μg/ml
  Fungal growth: −
Trichophyton tonsuran; 125 μg/ml
  Fungal growth: +++
Trichophyton tonsuran; 250 μg/ml
  Fungal growth: ++
Trichophyton tonsuran; 500 μg/ml
  Fungal growth: +/−
Trichophyton tonsuran; 1000 μg/ml
  Fungal growth: −
[16]; 125 μg/ml
  Fungal growth: ++
[16]; 250 μg/ml
  Fungal growth: +
[16]; 500 μg/ml
  Fungal growth: −
[16]; 1000 μg/ml
  Fungal growth: −
Epidermophyton floccosum [17]; 125 μg/ml
  Fungal growth: ++
Epidermophyton floccosum [17]; 250 μg/ml
  Fungal growth: ++
Epidermophyton floccosum [17]; 500 μg/ml
  Fungal growth: +/−
Epidermophyton floccosum [17]; 1000 μg/ml
  Fungal growth: −
Epidermophyton floccosum [17]; against Epidermophyton floccosum
  best antifungal or anti-yeast activity by the agar dilution method: against Epidermophyton floccosum
Epidermophyton floccosum [1]; listed as betulin-3,28-diphthalate
  Active against Epidermophyton floccosum: against Epidermophyton floccosum
Microsporum audouinii
  Active against Microsporum audouinii: Microsporum audouinii
Microsporum gypseum [18]
  Active against Microsporum gypseum: Microsporum gypseum
Trichophyton tonsurans
  Active against Trichophyton tonsurans: Trichophyton tonsurans

## C=C(C)C1CCC2(COC(=O)CCCC(=O)O)CCC3(C)C(CCC4C5(C)CCC(O)C(C)(C)C5CCC43C)C12 (stereo not drawn) [Betulin-28-glutarate]
Microsporum audouinni [5]
  Fungal growth: +
Pityrosporum ovale [6]
  Growth inhibition of Pityrosporum ovale by the direct addition method: inhibited the growth
  Pityrosporum ovale growth: +/−
P. ovale
  Active against Pityrosporum ovale: Pityrosporum ovale,
Epidermophyton floccosum [1]; listed as betulin-28-glutarate
  Active against Epidermophyton floccosum: against Epidermophyton floccosum
[2]
  Active against Trichophyton mentagrophytes: Trichophyton mentagrophytes,
Trichophyton rubrum [3]
  Active against Trichophyton rubrum: Trichophyton rubrum,
Trichophyton tonsurans
  Active against Trichophyton tonsurans: Trichophyton tonsurans,
Epidermophyton floccosum [7]
  Fungal growth: −
Microsporum canis [8]
  Fungal growth: +
Pityrosporum ovale [9]
  Fungal growth: −
Trichophyton rubrum [19]
  Fungal growth: +

## C[C@@H]1[C@H](O)[C@@H](C)/C=C/C=C/CC/C=C/C=C/C=C/C=C/C(O[C@H]2O[C@H](C)[C@@H](O)[C@H](N)[C@@H]2O)CC2O[C@](O)(CC(O)C(O)CCC(O)CC(O)CC(O)CC(=O)O[C@H]1C)CC(O)C2C(=O)O (stereo partly drawn) [Nystatin, reference compound]
Microsporum canis [11]; 125 μg/ml
  Fungal growth: +
Microsporum canis [11]; 250 μg/ml
  Fungal growth: +/−
Microsporum canis [11]; 500 μg/ml
  Fungal growth: −
Microsporum canis [11]; 1000 μg/ml
  Fungal growth: −
Microsporum gypseum [12]; 125 μg/ml
  Fungal growth: +
Microsporum gypseum [12]; 250 μg/ml
  Fungal growth: +/−
Microsporum gypseum [12]; 500 μg/ml
  Fungal growth: −
Microsporum gypseum [12]; 1000 μg/ml
  Fungal growth: −
Pityrosporum ovale [13]; 125 μg/ml
  Fungal growth: +
Pityrosporum ovale [13]; 250 μg/ml
  Fungal growth: +/−
Pityrosporum ovale [13]; 500 μg/ml
  Fungal growth: −
Pityrosporum ovale [13]; 1000 μg/ml
  Fungal growth: −
Trichophyton rubrum [14]; 125 μg/ml
  Fungal growth: +
Trichophyton rubrum [14]; 250 μg/ml
  Fungal growth: +
Trichophyton rubrum [14]; 500 μg/ml
  Fungal growth: +/−
Trichophyton rubrum [14]; 1000 μg/ml
  Fungal growth: −
Microsporum audouinni [15]; 125 μg/ml
  Fungal growth: −
Microsporum audouinni [15]; 250 μg/ml
  Fungal growth: −
Microsporum audouinni [15]; 500 μg/ml
  Fungal growth: −
Microsporum audouinni [15]; 1000 μg/ml
  Fungal growth: −
Trichophyton tonsuran; 125 μg/ml
  Fungal growth: +
Trichophyton tonsuran; 250 μg/ml
  Fungal growth: +/−
Trichophyton tonsuran; 500 μg/ml
  Fungal growth: −
Trichophyton tonsuran; 1000 μg/ml
  Fungal growth: −
[16]; 125 μg/ml
  Fungal growth: +
[16]; 250 μg/ml
  Fungal growth: +
[16]; 500 μg/ml
  Fungal growth: −
[16]; 1000 μg/ml
  Fungal growth: −
Epidermophyton floccosum [17]; 125 μg/ml
  Fungal growth: +/−
Epidermophyton floccosum [17]; 250 μg/ml
  Fungal growth: −
Epidermophyton floccosum [17]; 500 μg/ml
  Fungal growth: −
Epidermophyton floccosum [17]; 1000 μg/ml
  Fungal growth: −
Microsporum audouinni [5]
  Fungal growth: −
Pityrosporum ovale [6]
  Growth inhibition of Pityrosporum ovale by the direct addition method: inhibits growth
  Pityrosporum ovale growth: +/−
Epidermophyton floccosum [7]
  Fungal growth: −
Microsporum canis [8]
  Fungal growth: −
Pityrosporum ovale [9]
  Fungal growth: −
Trichophyton rubrum [10]
  Fungal growth: +/−
